In patent US6596715B1, “Protease inhibitors” (SmithKline Beecham Corporation, priority 1999, dated 2003):

Test: Chiral / configurational stability at the carbon alpha to the ketone
Format: physicochemical

configurational stability at the carbon center alpha to the ketone (compared to the corresponding 5 and 6 membered ring compounds): configurationally more stable | chiral stability (compared to the protonated isomer): superior chiral stability
Compound: [2H]C1(NC(=O)[C@H](CC(C)C)NC(=O)c2ccc3ccccc3n2)CCCN(S(=O)(=O)c2cccc[n+]2[O-])C([2H])([2H])C1=O (stereo partly drawn) [Formula (I), quinoline-2-carboxylic acid {(S)-3-methyl-1-[(2,2,4-trideuterio)-3-oxo-1-(1-oxy-pyridine-2-sulfonyl)-azepan-4-ylcarbamoyl]-butyl}amide]
